{"source": "patent US4804502A", "about": "“Vitamin D compounds” (priority 1988, dated 1989)", "key": {"[1]": {"test_system": "bone calcium mobilization", "assay": "Bone Calcium Mobilization in Rat (plasma Ca increase)", "assay_type": "in vivo", "details": "12.5 ng/rat, intrajugular, 18 h", "description": "Controls received carrier alone. Bone Ca resorption (BCR) was estimated by measuring the blood Ca increase in the treated rats. Blood was collected in heparinized tubes and centrifuged. The resulting plasma was measured for calcium concentration by atomic absorption spectroscopy. Since rats were fed a diet essentially devoid of Ca, plasma Ca increases reflected mobilization of Ca from bone, not intestinal Ca absorption."}, "vitamin D deficient rats": {"test_system": "vitamin D deficient rats", "details": "3 weeks"}, "[2]": {"test_system": "intestinal calcium absorption (duodenum)", "assay": "Stimulation of Intestinal Calcium Absorption in Rat (intestinal 45Ca transport, everted gut sac)", "details": "12.5 ng/rat, intrajugular, 18 h"}, "[3]": {"target": "T1, 1,25-(OH)2 D3 receptors (chick intestine) (Gallus gallus, UniProt O42392)", "T1 construct": "receptor prepared from intestine of chick, rat and calf; from tissue; host or cells: chick proximal small-intestine mucosa, cytosol, 35% ammonium sulphate precipitate", "T1 sequence (O42392 1-451)": "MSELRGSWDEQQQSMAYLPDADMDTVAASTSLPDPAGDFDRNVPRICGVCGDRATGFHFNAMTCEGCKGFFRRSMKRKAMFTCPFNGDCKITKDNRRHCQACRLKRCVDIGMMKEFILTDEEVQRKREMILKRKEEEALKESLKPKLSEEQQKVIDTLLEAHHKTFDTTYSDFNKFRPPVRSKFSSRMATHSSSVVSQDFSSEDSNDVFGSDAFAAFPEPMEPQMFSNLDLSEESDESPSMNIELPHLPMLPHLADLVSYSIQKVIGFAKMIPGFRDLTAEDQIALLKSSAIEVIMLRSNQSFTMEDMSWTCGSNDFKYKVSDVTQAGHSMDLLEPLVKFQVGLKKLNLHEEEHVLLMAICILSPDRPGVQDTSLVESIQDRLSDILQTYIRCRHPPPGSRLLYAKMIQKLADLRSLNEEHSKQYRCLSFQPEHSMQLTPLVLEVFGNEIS", "assay": "Competitive Binding to 1,25-(OH)2 D3 Intestine Receptors, chick", "details": "a/b×100 from amounts displacing 50% of 1,25-(OH)2[3H]D3", "description": "(§1) The ability of vitamin D3 metabolites to compete for 1,25-(OH)[^3 H]D3 receptor binding sites was evaluated with receptor prepared from intestine of chick, rat and calf. […] Mucosa was collected and washed three times with 10 volumes of cold KTED buffer. The washed mucosa was homogenized in KTED buffer (20% w/v) using a Polytron Pt20 tissue disruptor. Cytosol was prepared by centrifugation of the homogenized mucosa at 300,000×g for 1 hour. […] The ammonium sulphate treated cytosol was centrifuged at 20,000×g for 10 minutes. The supernatant was discarded and the pellet lyophilized and stored at […] Prior to binding assay the pellet was resuspended in cold binding assay buffer containing 150 mM KCl, 50 mM NaPO4, 1.5 mM EDTA and 5 mM dithiothreitol."}, "[4]": {"target": "T2, 1,25-(OH)2 D3 receptors (calf intestine) (Bos taurus, UniProt Q28037)", "T2 construct": "receptor prepared from intestine of chick, rat and calf; from tissue; host or cells: calf proximal small-intestine mucosa, cytosol, 35% ammonium sulphate precipitate", "T2 sequence (Q28037 1-426)": "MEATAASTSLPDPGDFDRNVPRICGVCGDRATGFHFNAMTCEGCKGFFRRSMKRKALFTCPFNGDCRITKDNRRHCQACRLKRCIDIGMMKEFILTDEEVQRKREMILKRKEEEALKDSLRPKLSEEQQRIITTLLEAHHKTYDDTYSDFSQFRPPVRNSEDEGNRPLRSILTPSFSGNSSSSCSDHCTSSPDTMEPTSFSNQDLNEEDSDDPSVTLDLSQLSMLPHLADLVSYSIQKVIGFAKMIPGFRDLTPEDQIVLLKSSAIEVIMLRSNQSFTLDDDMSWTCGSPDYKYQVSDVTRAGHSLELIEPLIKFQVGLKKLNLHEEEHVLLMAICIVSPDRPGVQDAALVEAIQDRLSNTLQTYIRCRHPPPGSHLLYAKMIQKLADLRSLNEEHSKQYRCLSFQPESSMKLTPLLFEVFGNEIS", "assay": "Competitive Binding to 1,25-(OH)2 D3 Intestine Receptors, calf", "details": "a/b×100 from amounts displacing 50% of 1,25-(OH)2[3H]D3", "description": "as §1"}, "[5]": {"test_system": "HL-60 promyelocytic leukemia cells", "assay": "Inhibition of proliferation of HL-60 cells", "assay_type": "cell-based", "details": "Homo sapiens, HL-60, 192 h; for IC50: read-out: ID50 (concentration which reduced the cell number by 50%)", "description": "(§2) Inhibition of Cell Proliferation and Induction of Cell Differentiation\n(§3) Cultures of HL-60 promyelocytic leukemia cells were established in the absence (control) and presence of various concentrations of test compounds. After an 8-day incubation period, the cultures were evaluated for proliferation of tumor cells, cell viability, and cellular differentiation. Proliferation was assessed by directly enumerating the increased number of tumor cells resulting from cell division during incubation. Viability was assessed by dye exclusion technique to learn whether any of the compounds were lethal to the cultured HL-60 cells. Cellular differentiation was evaluated by determining the number of cells which had acquired the enzymes necessary to support a respiratory burst, a characteristic of mature macrophages and granulocytes.\n(§4) Tissue culture medium used in these experiments was RPMI-1640 supplemented to 10% v/v with heat-inactivated fetal bovine serum and to an additional 1.6 mM with L-glutamine.\n(§5) Test compounds were dissolved in sufficient ethanol to yield stock solutions of 1×10^-2 or 1×10^-3 molar. Reduced lighting was used when working with compounds and stock solutions were stored in the dark at -20° C. in an argon atmosphere. Compounds were diluted in tissue culture medium and added to flasks containing HL-60 cells to achieve the final concentration described in each test.\n(§6) The HL-60 tumor cell line was originally derived from a patient with promyelocytic leukemia and was obtained from the American Type Culture Collection. The cells were maintained in liquid culture by serial passage twice weekly in tissue culture medium. […] In any test, three replicate flasks were incubated without compound (control) or in the presence of varying concentrations of test compound. Ethanol, used as the vehicle, was kept constant in all dilutions in each test and had no effect on cell proliferation, viability or cell differentiation at the concentrations used (≤0.1%). After 8 days of incubation at 37° in a humidified atmosphere of 5% CO2 in air, cultures were evaluated for tumor cell proliferation, viability and differentiation.\nQuantitation of proliferation was done by enumerating the number of HL-60 cells in each individual flask (3 flasks per experimental point) using an Elzone electronic particle counter. Results are shown as the percent reduction of cell number calculated for each concentration tested according to the formula: [formula] The results are also expressed as the concentration which reduced the cell number by 50% (ID50)."}, "[6]": {"test_system": "HL-60 promyelocytic leukemia cells", "assay": "Induction of differentiation of HL-60 cells (NBT reduction)", "assay_type": "cell-based, human", "details": "for EC50: Homo sapiens, HL-60, 192 h, read-out: ED50 (concentration which induced differentiation of 50% of the cells)", "description": "as §2, §3, §4, §5, §6\nQuantitation of differentiated cells was done by the biochemical method of nitroblue tetrazolum (NBT) reduction. One million HL-60 cells were pooled from replicate cultures, centrifuged at 220×g for 10 minutes, and resuspended in 1 ml of Ca^++ -Mg^++ -deficient phosphate buffered saline prepared by supplementing Ca^++ -Mg^++ -free phosphate buffered saline (PBS) to 20% v/v with heat-inactivated fetal bovine serum). Nitroblue tetrazolium was dissolved at 0.5 mg per ml in Ca^++ -Mg^++ -free PBS with gentle heating and frequent mixing. A stock solution of 1 mg tetradecanoyl phorbol acetate (TPA) per ml in ethanol, stored at -20°, was diluted 100-fold with Ca^++ -Mg^++ -free PBS to prepare a working solution. The test was done by adding 1 ml of NBT solution and 0.02 ml of the working TPA solution to the HL-60 cells. After mixing, the tubes were incubated in a 37° water bath for 25 minutes then transferred to ice. Undifferentiated and differentiated cells present in any sample were determined microscopically by surveying a minimum of 300 cells per sample. Cells without pigmented granules (clear cells) were judged to be undifferentiated while those containing greater than 3 blue-black formazan granules were scored as differentiated. Generally, differentiated cells were intensely pigmented clearly indicating the enzymatic conversion of NBT to formazan. Results are expressed as the percentage of differentiated cells present in any sample as calculated according to the formula: [formula] The results are also expressed as the concentration of compound which induced differentiation of 50% of the cells (ED50)."}, "[7]": {"details": "read-out: % Reduction in cell number"}, "[8]": {"details": "8 days, from dose response curves"}}, "note": "Read-outs that look alike come from different tables or passages of the source.", "data": [{"smiles": "C=C1/C(=C\\C=C2/CCC[C@]3(C)[C@@H]([C@H](C)CCCC(C)(C)O)CC[C@@H]23)C[C@@H](O)C[C@@H]1O", "note": "[1,25-(OH)2 D3, reference compound]", "values": [{"measurement": "% of 1,25-(OH)2 D3 Effect in Rat, bone calcium mobilization", "setting": "[1]", "result": 100, "unit": "%"}, {"measurement": "Bone Mass", "setting": "vitamin D deficient rats; daily dose 15 ng", "result": "156 ± 16", "unit": "mm^3 /cm^3"}, {"measurement": "Serum Ca^2+", "setting": "vitamin D deficient rats; daily dose 15 ng", "result": "11.76 ± 0.16", "unit": "mg/dL"}, {"measurement": "Serum PO4^2-", "setting": "vitamin D deficient rats; daily dose 15 ng", "result": "7.61 ± 0.31", "unit": "mg/dL"}, {"measurement": "Bone Mass", "setting": "vitamin D deficient rats; daily dose 60 ng", "result": "296 ± 56", "unit": "mm^3 /cm^3"}, {"measurement": "Serum Ca^2+", "setting": "vitamin D deficient rats; daily dose 60 ng", "result": "11.92 ± 0.40", "unit": "mg/dL"}, {"measurement": "Serum PO4^2-", "setting": "vitamin D deficient rats; daily dose 60 ng", "result": "6.58 ± 0.30", "unit": "mg/dL"}, {"measurement": "% of 1,25-(OH)2 D3 Effect in Rat, intestinal calcium absorption", "setting": "[2]", "result": 100, "unit": "%"}]}, {"smiles": "C=C1CC[C@H](O)C/C1=C/C=C1\\CCC[C@]2(C)[C@@H]([C@H](C)CC#CC(C)(C)O)CC[C@@H]12", "note": "[Compound C, 25-hydroxy-23-yne-cholecalciferol]", "values": [{"measurement": "% of 1,25-(OH)2 D3 Effect in Rat, bone calcium mobilization", "setting": "[1]", "result": 0, "unit": "%"}, {"measurement": "Competitive Binding to 1,25-(OH)2 D3 Receptors - % of 1,25-(OH)2 D3 Effect, chick intestine", "setting": "[3]", "result": 0, "unit": "%"}, {"measurement": "Competitive Binding to 1,25-(OH)2 D3 Receptors - % of 1,25-(OH)2 D3 Effect, calf intestine", "setting": "[4]", "result": 0, "unit": "%"}, {"measurement": "inhibition at 0.1 µM", "setting": "[5]; [7]", "result": 0, "unit": "%"}, {"measurement": "inhibition at 1 µM", "setting": "[5]; [7]", "result": 31, "unit": "%"}, {"measurement": "inhibition at 3 µM", "setting": "[5]; [7]", "result": 79, "unit": "%"}, {"measurement": "IC50", "setting": "[5]", "result": 1500, "unit": "nM"}, {"measurement": "% Differentiated cells", "setting": "[6]; 10 × 10^-8 M, 8 days", "result": 5, "unit": "%"}, {"measurement": "% Differentiated cells", "setting": "[6]; 100 × 10^-8 M, 8 days", "result": 27, "unit": "%"}, {"measurement": "% Differentiated cells", "setting": "[6]; 300 × 10^-8 M, 8 days", "result": 95, "unit": "%"}, {"measurement": "EC50", "setting": "[6]", "result": 1500, "unit": "nM"}, {"measurement": "% of 1,25-(OH)2 D3 Effect in Rat, intestinal calcium absorption", "setting": "[2]", "result": 71, "unit": "%"}]}, {"smiles": "C=C1CC[C@H](O)C/C1=C/C=C1\\CCC[C@]2(C)[C@@H]([C@H](C)CC#CC(O)(C(F)(F)F)C(F)(F)F)CC[C@@H]12", "note": "[Compound D, 25-hydroxy-23-yne-26,26,26,27,27,27-hexafluorocholecalciferol]", "values": [{"measurement": "% of 1,25-(OH)2 D3 Effect in Rat, bone calcium mobilization", "setting": "[1]", "result": 11, "unit": "%"}, {"measurement": "Competitive Binding to 1,25-(OH)2 D3 Receptors - % of 1,25-(OH)2 D3 Effect, chick intestine", "setting": "[3]", "result": 0, "unit": "%"}, {"measurement": "Competitive Binding to 1,25-(OH)2 D3 Receptors - % of 1,25-(OH)2 D3 Effect, calf intestine", "setting": "[4]", "result": 0, "unit": "%"}, {"measurement": "inhibition at 0.01 µM", "setting": "[5]; 1 × 10^-8 M, 8 days, read-out: % Reduction in cell number", "result": 0, "unit": "%"}, {"measurement": "inhibition at 0.1 µM", "setting": "[5]; 10 × 10^-8 M, 8 days, read-out: % Reduction in cell number", "result": 14, "unit": "%"}, {"measurement": "inhibition at 1 µM", "setting": "[5]; 100 × 10^-8 M, 8 days, read-out: % Reduction in cell number", "result": 77, "unit": "%"}, {"measurement": "IC50", "setting": "[5]; [8]", "result": 250, "unit": "nM"}, {"measurement": "% Differentiated cells", "setting": "[6]; 1 × 10^-8 M, 8 days", "result": 6, "unit": "%"}, {"measurement": "% Differentiated cells", "setting": "[6]; 10 × 10^-8 M, 8 days", "result": 27, "unit": "%"}, {"measurement": "% Differentiated cells", "setting": "[6]; 100 × 10^-8 M, 8 days", "result": 99, "unit": "%"}, {"measurement": "EC50", "setting": "[6]; [8]", "result": 200, "unit": "nM"}, {"measurement": "% of 1,25-(OH)2 D3 Effect in Rat, intestinal calcium absorption", "setting": "[2]", "result": 0, "unit": "%"}]}]}
